# Test results: US9115145B2, “Tocotrienol derivatives and associated methods” (FIRST TECH INTERNATIONAL LIMITED, priority 2011, dated 2015)
# Where two headings read alike, the source gives them in different places.
# What was measured:
# [1] = tested on: +SA mammary epithelial cells; assay: MTT assay of +SA cells (antiproliferative activity); format: cell-based, mouse; settings: for IC50: 24 hours treatment, read-out: IC50 antiproliferative activity against +SA mammary epithelial cells; for antiproliferative activity against +SA mammary tumor cells (in words): described from FIG. 32 / text
# Description: The antiproliferative activities of Compounds 3-44 against the highly metastatic malignant +SA mammary epithelial cells were evaluated by MTT assay. Materials for the assay were purchased from Sigma Chemical Company (St. Louis, Mo.) unless otherwise stated. The highly malignant +SA mouse mammary epithelial cell line was serially passaged at subconfluent cell density. The +SA mammary tumor cell line was derived from an adenocarcinoma that developed spontaneously in a BALB/c female mouse. +SA cells were maintained in serum-free defined medium consisting of Dulbecco's modified Eagle's medium (DMEM)/F12 containing 5 mg/mL bovine serum albumin (BSA), 10 […], 100 U/mL soybean trypsin inhibitor, 100 U/mL penicillin G, 0.1 mg/mL streptomycin, […], and 10 ng/mL epidermal growth factor. For subculturing, cells were rinsed twice with sterile Ca2+ and Mg2+-free phosphate buffered saline (PBS) and incubated in 0.05% trypsin containing 0.025% EDTA in PBS for 5 min at 37° C. The released cells were centrifuged, resuspended in fresh media and counted using hemocytometer. A stock solution of the compounds was prepared in DMSO. Once dissolved, this solution was added to a small volume of sterile 10% BSA in water and incubated overnight at 37° C. This solution conjugated to BSA was used to prepare various concentrations (0-40 μM) of tocotrienol analogs. DMSO was added to all treatment media such that the final DMSO concentration was the same in all treatment groups within a given experiment and was always less than 0.1%. For cytotoxic studies, cells were seeded at a density of 5×10^4 cells/well (+SA cells) or 1×10^5 cells/well (CL-S1 cells) (6 wells/group) in 24-well culture plates and allowed to grow in their respective control media. After 3 days incubation period (approximately 70% confluency), cells were divided equally into various treatment groups and exposed to their respective treatments for a 24 hours incubation period. Following the 24 hours treatment period, cell viability was measured using the MTT assay.
# +SA Mammary epithelial cell viable number was determined by a 3-(4,5-dimethylthiazol-2yl)-2,5-diphenyl tetrazolium bromide (MTT) colorimetric assay. On the assay day, treatment medium was replaced with fresh control medium containing 0.42 mg/mL MTT, and the cells in 24-well plates were incubated at 37° C. for 4 hours. Afterward, the medium was removed, and the MTT crystals were dissolved in isopropyl alcohol (1 mL/well). The optical density of each sample was read at 570 nm on a microplate reader (SpectraCount, Packard BioScience Company), against a blank prepared from cell-free cultures. The number of cells/well was calculated against a standard curve prepared by plating various concentrations of cells, as determined by hemocytometer, at the start of each experiment.
# Differences among the various treatment groups in +SA cell cytotoxic studies were determined by analysis of variance (ANOVA) followed by Dunnett's t-test. The difference of P<0.05 was considered to be statistically significant as compared with vehicle-treated controls unless separately described. Linear regression analysis of treatment effects on viable cell number in growth and cytotoxicity studies was used to determine the 50% growth inhibition concentration (IC50) for individual treatments.
# [2] = tested on: MDA-MB-231 human breast cancer cells; assay: Wound-healing assay (cell migration); format: cell-based
# Description: The highly metastatic human breast cancer MDA-MB-231 cells were cultured in RPMI 1640 medium containing 10 mM HEPES, 4 mM L-glutamine, 10% fetal bovine serum, penicillin (100 IU/mL), and streptomycin (50 μg/mL), and grown in a 5% CO2 atmosphere at 37° C. Cells were plated onto sterile 24-well and allowed to recover for a confluent cell monolayer formed in each well (>95% confluence). Wounds were then inflicted to each cell monolayer using a sterile 200 μL pipette tip. Media were removed, cells monolayers were washed twice with PBS, and then fresh media containing test compounds were added to each well. Test compounds were prepared in DMSO at 5 μM concentration and added to the plates, each in triplicate using DMSO as negative control. The incubation was carried out for 24 h under serum-starved conditions, after which media was removed and cells were fixed and stained using a staining composition sold under the trade name Diff Quick (Dade Behring Diagnostics, Aguada, Puerto Rico). The stain comprised a fixative reagent containing 1.8 mg/L triarylmethane dye in methyl alcohol; a first solution of 1 g/L xanthene dye, buffer, and sodium azide (0.01%) as preservative; and a second solution of 1.25 g/L Thiazine dye mixture (0.625 g/L azure A and 0.625 g/L methylene blue) and buffer. The number of cells migrated on the scratched wound were counted under the microscope in three or more randomly selected fields (magnification: 400×). Final results are expressed as mean±SEM per 400× field. The wound-healing assay is a simple method for the study of directional cell migration in vitro.
# Compounds were tested for their ability to inhibit the migration of the highly metastatic MDA-MB-231 human breast cancer cells in the wound-healing assay using the procedure described above. Compounds 6, 10, 12, 13, 24, 26, 27, and 29 inhibited the migration of more than 50% of the human breast cancer cells MDA-MB-231 in the wound healing assay at 5 μM dose. […] The antimigratory activity of tocotrienols may be enhanced by a terminal aromatic functionality. The presence of electron withdrawing group, such as nitro in Compound 29, may eliminate the antiproliferative activity yet retain the antimigratory activity of the compound. While the electron donating groups, such as OH and OMe found in Compounds 23 and 26, respectively, retained both antiproliferative and antimigratory activities.
# Utilizing similar procedures follow-up testing was conducted on a variety of compounds using a range of compound concentrations. The results of follow-up antimigratory testing are shown in FIG. 35B and Table III below with IC50 values calculated using statistical software.
# [3] = tested on: MCF7 human breast cancer cell line; assay: MTT assay of MCF7 cells; format: cell-based; settings: Homo sapiens, media containing 1% fetal bovine serum
# Description: (§1) MDA-MB-231 and MCF7 cells were plated at a density of 8×10^3 cells/well and 10^4 cells/well in 96-well culture plates, respectively. The compounds were fed in serum free media containing 5% and 1% fetal bovine serum for MDA-MB-231 and MCF7 cells, respectively.
# [4] = tested on: MDA-MB-231 human breast cancer cell line; assay: MTT assay of MDA-MB-231 cells; format: cell-based; settings: Homo sapiens, media containing 5% fetal bovine serum
# Description: as §1
# [5] = tested on: MCF 10A non-tumorigenic mammary epithelial cells; assay: MTT assay of MCF10A cells; format: cell-based, human; settings: for IC50: Homo sapiens
# Description: MCF 10A (ATCC cat # CRL-10317) normal human non-tumorigenic mammary epithelial cells were maintained in serum-free defined medium consisting of Dulbecco's modified Eagle's medium (DMEM)/F12 containing 5% horse serum, 1% penicillin/streptomycin, 0.5 μg/mL hydrocortisone, 100 ng/mL cholera toxin, 10 μg/mL insulin, and 20 ng/mL epidermal growth factor (rhEGF). For subculturing, cells were rinsed twice with sterile Ca2+ and Mg2+-free phosphate buffered saline (PBS) and incubated in 0.25% trypsin containing 0.025% EDTA in PBS for 5 min at 37° C. The released cells were centrifuged, re-suspended in fresh media and counted using a hemocytometer. For testing, MCF 10A cells were plated at a density of 10×10^4 cells/well. A stock solution of the compounds was prepared in DMSO. DMSO was added to all treatment media such that the final DMSO concentration was the same in all treatment groups within a given experiment and was always less than 0.1%. The compounds were fed in serum free media. MCF10A mammary epithelial cell's viable number was determined by MTT colorimetric assay. […] IC50 values were calculated by non-linear regression using statistical software. The selectivity index indicated in the table represents the IC50 value for the MCF 10A cell line divided by the IC50 value for the +SA cell line.
Compound,"IC50 ([1]; Mus musculus, +SA cell)",antiproliferative activity against +SA mammary tumor cells (in words) [1],further results
"CC(C)=CCC/C(C)=C/CC/C(C)=C/CC[C@]1(C)CCc2cc(O)cc(C)c2O1 [Compound 2, δ-tocotrienol, reference compound]",,,"IC50 [1]: 3000 nM; IC50 ([2]; MDA-MB-231, wound-healing assay, dose response, read-out: IC50 antimigratory activity): > 40 µM"
"CC(C)=CCC/C(C)=C/CC/C(C)=C/CC[C@]1(C)CCc2c3c(c(C)c(C)c2O1)OCN(C)C3 [Compound 3, (R)-2,5,6,8-tetramethyl-8-((3E,7E)-4,8,12-trimethyltrideca-3,7,11-trienyl)-1,2,3,8,9,10-hexahydrochromeno[5,6-e][1,3]oxazine]",1200 to 2200 nM,,
"CC(C)=CCC/C(C)=C/CC/C(C)=C/CC[C@]1(C)CCc2c3c(cc(C)c2O1)OCN(C)C3 [Compound 4, (R)-2,6,8-trimethyl-8-((3E,7E)-4,8,12-trimethyltrideca-3,7,11-trienyl)-1,2,3,8,9,10-hexahydrochromeno[5,6-e][1,3]oxazine]",1200 to 2200 nM,,
"CCOC(CCN1COc2c(C)c(C)c3c(c2C1)CC[C@@](C)(CC/C=C(\C)CC/C=C(\C)CCC=C(C)C)O3)OCC [Compound 14, (R)-2-(3,3-diethoxypropyl)-5,6,8-trimethyl-8-((3E,7E)-4,8,12-trimethyltrideca-3,7,11-trienyl)-1,2,3,8,9,10-hexahydrochromeno[5,6-e][1,3]oxazine]",,significantly decreased activity,
"CC(C)=CCC/C(C)=C/CC/C(C)=C/CC[C@]1(C)CCc2c3c(c(C)c(C)c2O1)OCN(CC1CCNCC1)C3 [Compound 16, (R)-5,6,8-trimethyl-2-(piperidin-4-ylmethyl)-8-((3E,7E)-4,8,12-trimethyltrideca-3,7,11-trienyl)-1,2,3,8,9,10-hexahydrochromeno[5,6-e][1,3]oxazine]",,strong activity,IC50 [3]: > 20 µM; IC50 [4]: 800 nM
"CC(C)=CCC/C(C)=C/CC/C(C)=C/CC[C@]1(C)CCc2c3c(cc(C)c2O1)OCN(CCCCC(=O)O)C3 [Compound 20, 5-((R)-6,8-dimethyl-8-((3E,7E)-4,8,12-trimethyltrideca-3,7,11-trienyl)-9,10-dihydrochromeno[5,6-e][1,3]oxazin-2(1H,3H,8H)-yl)pentanoic acid]",,strong activity but less so than the aforementioned compounds,
"COc1ccc(CCN2COc3c(C)c(C)c4c(c3C2)CC[C@@](C)(CC/C=C(\C)CC/C=C(\C)CCC=C(C)C)O4)cc1OC [Compound 23, (R)-2-(3,4-dimethoxyphenethyl)-5,6,8-trimethyl-8-((3E,7E)-4,8,12-trimethyltrideca-3,7,11-trienyl)-1,2,3,8,9,10-hexahydrochromeno[5,6-e][1,3]oxazine]",,very high activity,"IC50 [3]: > 20 µM; IC50 [4]: > 50000 nM; IC50 ([5]; MCF-10A, MCF10A cells, Table II, non-linear regression, read-out: MCF10A (IC50)): 700 nM; IC50 ([5]; MCF 10A non-tumorigenic cells, Table I, read-out: IC50 MCF 10A): 700 nM; Selectivity index ([5]; IC50 for MCF 10A divided by IC50 for +SA cell line): 0.39"
"CC(C)=CCC/C(C)=C/CC/C(C)=C/CC[C@]1(C)CCc2c3c(c(C)c(C)c2O1)OCN(Cc1cccc([N+](=O)[O-])c1)C3 [Compound 28, (R)-5,6,8-trimethyl-2-(3-nitrobenzyl)-8-((3E,7E)-4,8,12-trimethyltrideca-3,7,11-trienyl)-1,2,3,8,9,10-hexahydrochromeno[5,6-e][1,3]oxazine]",,significant activity but less so than Compounds 20,
"CC(C)=CCC/C(C)=C/CC/C(C)=C/CC[C@]1(C)CCc2c3c(cc(C)c2O1)OCN(Cc1cccc([N+](=O)[O-])c1)C3 [Compound 29, (R)-6,8-dimethyl-2-(3-nitrobenzyl)-8-((3E,7E)-4,8,12-trimethyltrideca-3,7,11-trienyl)-1,2,3,8,9,10-hexahydrochromeno[5,6-e][1,3]oxazine]",,inactive,"inhibition at 5 µM ([2]; Homo sapiens, MDA-MB-231, 5 μM dose, 24 h, wound-healing assay): > 50%"
"CC(C)=CCC/C(C)=C/CC/C(C)=C/CC[C@]1(C)CCc2c(CO)c(O)c(C)c(C)c2O1 [Compound 32, (R)-5-(hydroxymethyl)-2,7,8-trimethyl-2-((3E,7E)-4,8,12-trimethyltrideca-3,7,11-trienyl)chroman-6-ol]",2600 nM,,
"CC(C)=CCC/C(C)=C/CC/C(C)=C/CC[C@]1(C)CCc2c(CO)c(O)cc(C)c2O1 [Compound 33, (R)-5-(hydroxymethyl)-2,8-dimethyl-2-((3E,7E)-4,8,12-trimethyltrideca-3,7,11-trienyl)chroman-6-ol]",≥ 6600 nM,,
"CC(C)=CCC/C(C)=C/CC/C(C)=C/CC[C@]1(C)CCc2cc(O)c(CO)c(C)c2O1 [Compound 34, (R)-7-(hydroxymethyl)-2,8-dimethyl-2-((3E,7E)-4,8,12-trimethyltrideca-3,7,11-trienyl)chroman-6-ol]",≥ 6600 nM,,
